# Measured values as given in US11026991B2, “Compositions and methods of use thereof to promote muscle growth and function” (Worlds Greatest Ingredients, LP, priority 2018, dated 2021).
# Like-named read-outs stand apart in the source and are kept apart here.
# Settings: in vivo; for Plasma Isoleucine Concentrations After Ingestion / Plasma Leucine Concentrations After Ingestion / Plasma Lysine Concentrations After Ingestion / Plasma Methionine Concentrations After Ingestion / Plasma Phenylalanine Concentrations After Ingestion / Plasma Threonine Concentrations After Ingestion / Plasma Tryptophan Concentrations After Ingestion / Plasma Valine Concentrations After Ingestion / Total Plasma BCAA Concentrations After Ingestion / Total Plasma EAA Concentrations After Ingestion / Plasma Leucine Delta Change Relative to Baseline Values / Plasma Leucine Percent Change Relative to Baseline Values / relative increase in plasma leucine from Pre / elevation in plasma leucine relative to baseline, times greater than the other condition: male, human
# Experimental: The subject came into the laboratory fasted prior to the testing days. […] On Day 1, they were randomized to consume 1 of the 2 conditions. Following, consumption of the fluid mixture (8 oz. water), plasma amino acids were measured at 30, 60, 90, and 120 minutes. A 72-hour washout took place followed by the 2nd condition following the same procedures.
# The dosage used in this study was either 2 grams of di-leucine (condition Ce) or 2 grams of leucine (condition C4).
compound,measurement,setting,value
"CC(C)C[C@H](N)C(=O)O [Condition C4, leucine]","increase in plasma lysine, times greater than the other condition",,19 ×
same,increases in total EAA concentration relative to baseline (range),,9.4% to 16.3%
same,plasma phenylalanine change relative to Pre values (range),,−16.0% to −3.5%
same,Plasma Isoleucine Concentrations After Ingestion,,45.75 nmol/L
same,Plasma Leucine Concentrations After Ingestion,,92.25 nmol/L
same,Plasma Lysine Concentrations After Ingestion,,121.19 nmol/L
same,Plasma Methionine Concentrations After Ingestion,,18.77 nmol/L
same,Plasma Phenylalanine Concentrations After Ingestion,,48.61 nmol/L
same,Plasma Threonine Concentrations After Ingestion,,87.38 nmol/L
same,Plasma Tryptophan Concentrations After Ingestion,,45.00 nmol/L
same,Plasma Valine Concentrations After Ingestion,,230.43 nmol/L
same,Total Plasma BCAA Concentrations After Ingestion,,368.43 nmol/L
same,Total Plasma EAA Concentrations After Ingestion,,689.38 nmol/L
same,Plasma Isoleucine Concentrations After Ingestion,30 min,34.44 nmol/L
same,Plasma Leucine Concentrations After Ingestion,30 min,198.33 nmol/L
same,Plasma Leucine Delta Change Relative to Baseline Values,30 min,106.09 nmol/L
same,Plasma Leucine Percent Change Relative to Baseline Values,30 min,115.0%
same,Plasma Lysine Concentrations After Ingestion,30 min,135.48 nmol/L
same,Plasma Methionine Concentrations After Ingestion,30 min,16.61 nmol/L
same,Plasma Phenylalanine Concentrations After Ingestion,30 min,42.44 nmol/L
same,Plasma Threonine Concentrations After Ingestion,30 min,76.42 nmol/L
same,Plasma Tryptophan Concentrations After Ingestion,30 min,40.12 nmol/L
same,Plasma Valine Concentrations After Ingestion,30 min,210.39 nmol/L
same,Total Plasma BCAA Concentrations After Ingestion,30 min,443.16 nmol/L
same,Total Plasma EAA Concentrations After Ingestion,30 min,754.23 nmol/L
same,relative increase in plasma leucine from Pre,30 min,106.09 nmol/mL
same,Plasma Isoleucine Concentrations After Ingestion,60 min,33.30 nmol/L
same,Plasma Leucine Concentrations After Ingestion,60 min,146.70 nmol/L
same,Plasma Leucine Delta Change Relative to Baseline Values,60 min,54.45 nmol/L
same,Plasma Leucine Percent Change Relative to Baseline Values,60 min,59.0%
same,Plasma Lysine Concentrations After Ingestion,60 min,128.45 nmol/L
same,Plasma Methionine Concentrations After Ingestion,60 min,15.94 nmol/L
same,Plasma Phenylalanine Concentrations After Ingestion,60 min,40.84 nmol/L
same,Plasma Threonine Concentrations After Ingestion,60 min,75.83 nmol/L
same,Plasma Tryptophan Concentrations After Ingestion,60 min,43.54 nmol/L
same,Plasma Valine Concentrations After Ingestion,60 min,200.61 nmol/L
same,Total Plasma BCAA Concentrations After Ingestion,60 min,380.61 nmol/L
same,Total Plasma EAA Concentrations After Ingestion,60 min,685.20 nmol/L
same,relative increase in plasma leucine from Pre,60 min,54.45 nmol/mL
same,Plasma Isoleucine Concentrations After Ingestion,90 min,40.37 nmol/L
same,Plasma Leucine Concentrations After Ingestion,90 min,181.67 nmol/L
same,Plasma Leucine Delta Change Relative to Baseline Values,90 min,89.42 nmol/L
same,Plasma Leucine Percent Change Relative to Baseline Values,90 min,96.9%
same,Plasma Lysine Concentrations After Ingestion,90 min,134.15 nmol/L
same,Plasma Methionine Concentrations After Ingestion,90 min,19.30 nmol/L
same,Plasma Phenylalanine Concentrations After Ingestion,90 min,46.94 nmol/L
same,Plasma Threonine Concentrations After Ingestion,90 min,91.05 nmol/L
same,Plasma Tryptophan Concentrations After Ingestion,90 min,46.58 nmol/L
same,Plasma Valine Concentrations After Ingestion,90 min,225.20 nmol/L
same,Total Plasma BCAA Concentrations After Ingestion,90 min,447.24 nmol/L
same,Total Plasma EAA Concentrations After Ingestion,90 min,785.26 nmol/L
same,"elevation in plasma leucine relative to baseline, times greater than the other condition",90 min,2.6 ×
same,Plasma Isoleucine Concentrations After Ingestion,120 min,36.47 nmol/L
same,Plasma Leucine Concentrations After Ingestion,120 min,158.84 nmol/L
same,Plasma Leucine Delta Change Relative to Baseline Values,120 min,66.59 nmol/L
same,Plasma Leucine Percent Change Relative to Baseline Values,120 min,72.2%
same,Plasma Lysine Concentrations After Ingestion,120 min,171.18 nmol/L
same,Plasma Methionine Concentrations After Ingestion,120 min,19.19 nmol/L
same,Plasma Phenylalanine Concentrations After Ingestion,120 min,45.40 nmol/L
same,Plasma Threonine Concentrations After Ingestion,120 min,90.94 nmol/L
same,Plasma Tryptophan Concentrations After Ingestion,120 min,44.81 nmol/L
same,Plasma Valine Concentrations After Ingestion,120 min,234.78 nmol/L
same,Total Plasma BCAA Concentrations After Ingestion,120 min,430.08 nmol/L
same,Total Plasma EAA Concentrations After Ingestion,120 min,801.61 nmol/L
same,"elevation in plasma leucine relative to baseline, times greater than the other condition",120 min,1.5 ×
